Measured values published in the OligoGym collection.
HELM strings list units from the 5' end as sugar, base in round brackets, then linkage (d deoxyribose, r ribose, m 2'-O-methyl, p phosphodiester). Strings are as the collection lists them; they lack the last nucleoside at the 3' end of the tested compound. [moe] = 2'-O-(2-methoxyethyl) (MOE); [sp] = phosphorothioate linkage; [m5C] = 5-methylcytosine

The substances below were run against UBE3A-ATS (assay: mouse, dose not given). Conditions: ASO.

Substance | 3 h FOB score [score 0-7]
RNA1{[moe](G)[sp].[moe](G)p.[moe](A)p.[moe](T)p.[moe](T)p.d(T)[sp].d(T)[sp].d(A)[sp].d(T)[sp].d(T)[sp].d(G)[sp].d(G)[sp].d(T)[sp].d([m5C])[sp].d(A)[sp].[moe](T)p.[moe]([m5C])p.[moe](T)[sp].[moe]([m5C])}$$$$ (last 3' nucleoside missing) | 5
RNA1{[moe](G)[sp].[moe](G)p.[moe](A)p.[moe](T)p.[moe](T)p.d([m5C])[sp].d(A)[sp].d(A)[sp].d(T)[sp].d(A)[sp].d(G)[sp].d(T)[sp].d(G)[sp].d(T)[sp].d(A)[sp].[moe](G)p.[moe](G)p.[moe](T)[sp].[moe](G)}$$$$ (last 3' nucleoside missing) | 7
RNA1{[moe](G)[sp].[moe](G)p.[moe](A)p.[moe]([m5C])p.[moe](A)p.d(G)[sp].d([m5C])[sp].d(T)[sp].d(G)[sp].d(T)[sp].d(G)[sp].d(T)[sp].d(G)[sp].d(G)[sp].d(A)[sp].[moe](G)p.[moe](G)p.[moe](G)[sp].[moe](A)}$$$$ (last 3' nucleoside missing) | 5.5
RNA1{[moe](G)[sp].[moe](G)p.[moe](A)p.[moe]([m5C])p.[moe](A)p.d([m5C])[sp].d(T)[sp].d([m5C])[sp].d(T)[sp].d([m5C])[sp].d(G)[sp].d([m5C])[sp].d(T)[sp].d(G)[sp].d(A)[sp].[moe](G)p.[moe](G)p.[moe](A)[sp].[moe]([m5C])}$$$$ (last 3' nucleoside missing) | 4.5
RNA1{[moe](G)[sp].[moe](G)p.[moe](A)p.[moe]([m5C])p.[moe](T)p.d(T)[sp].d(G)[sp].d(T)[sp].d([m5C])[sp].d(T)[sp].d(T)[sp].d(A)[sp].d(T)[sp].d(G)[sp].d(G)[sp].[moe]([m5C])p.[moe](T)p.[moe](G)[sp].[moe]([m5C])}$$$$ (last 3' nucleoside missing) | 1
RNA1{[moe](G)[sp].[moe](G)p.[moe](G)p.[moe](A)p.[moe](A)p.d(G)[sp].d(T)[sp].d([m5C])[sp].d(T)[sp].d(A)[sp].d(G)[sp].d(G)[sp].d(T)[sp].d([m5C])[sp].d(T)[sp].[moe]([m5C])p.[moe](A)p.[moe]([m5C])[sp].[moe](G)}$$$$ (last 3' nucleoside missing) | 3.2
RNA1{[moe](G)[sp].[moe](G)p.[moe](G)p.[moe](A)p.[moe](A)p.d([m5C])[sp].d(A)[sp].d([m5C])[sp].d(A)[sp].d([m5C])[sp].d([m5C])[sp].d(A)[sp].d(T)[sp].d(T)[sp].d([m5C])[sp].[moe](A)p.[moe](G)p.[moe]([m5C])[sp].[moe](A)}$$$$ (last 3' nucleoside missing) | 4.5
RNA1{[moe](G)[sp].[moe](G)p.[moe](G)p.[moe](A)p.[moe](G)p.d(G)[sp].d(A)[sp].d(G)[sp].d(T)[sp].d([m5C])[sp].d([m5C])[sp].d([m5C])[sp].d([m5C])[sp].d(A)[sp].d(G)[sp].[moe](A)p.[moe](T)p.[moe](A)[sp].[moe](A)}$$$$ (last 3' nucleoside missing) | 1.2
RNA1{[moe](G)[sp].[moe](G)p.[moe](G)p.[moe](A)p.[moe](T)p.d(A)[sp].d(T)[sp].d(A)[sp].d(T)[sp].d([m5C])[sp].d(A)[sp].d([m5C])[sp].d(T)[sp].d(T)[sp].d(G)[sp].[moe](G)p.[moe](A)p.[moe](G)[sp].[moe]([m5C])}$$$$ (last 3' nucleoside missing) | 4
RNA1{[moe](G)[sp].[moe](G)p.[moe](G)p.[moe](A)p.[moe](T)p.d(T)[sp].d(T)[sp].d(A)[sp].d([m5C])[sp].d([m5C])[sp].d([m5C])[sp].d(A)[sp].d(T)[sp].d(T)[sp].d(G)[sp].[moe]([m5C])p.[moe](A)p.[moe](A)[sp].[moe](G)}$$$$ (last 3' nucleoside missing) | 1
RNA1{[moe](G)[sp].[moe](G)p.[moe](G)p.[moe](T)p.[moe](A)p.d(G)[sp].d(A)[sp].d(A)[sp].d(G)[sp].d(A)[sp].d([m5C])[sp].d(T)[sp].d(A)[sp].d(G)[sp].d([m5C])[sp].[moe](A)p.[moe](T)p.[moe](A)[sp].[moe]([m5C])}$$$$ (last 3' nucleoside missing) | 5.8
RNA1{[moe](G)[sp].[moe](G)p.[moe](G)p.[moe](T)p.[moe](A)p.d(T)[sp].d(T)[sp].d(G)[sp].d([m5C])[sp].d(T)[sp].d(G)[sp].d(T)[sp].d([m5C])[sp].d([m5C])[sp].d(A)[sp].[moe](A)p.[moe](A)p.[moe](T)[sp].[moe](G)}$$$$ (last 3' nucleoside missing) | 6.8
RNA1{[moe](G)[sp].[moe](G)p.[moe](G)p.[moe](T)p.[moe](A)p.d([m5C])[sp].d(T)[sp].d(A)[sp].d(T)[sp].d(G)[sp].d(T)[sp].d(T)[sp].d(G)[sp].d(T)[sp].d([m5C])[sp].[moe](A)p.[moe]([m5C])p.[moe](T)[sp].[moe](G)}$$$$ (last 3' nucleoside missing) | 6
RNA1{[moe](G)[sp].[moe](G)p.[moe](G)p.[moe](T)p.[moe](T)p.d(A)[sp].d([m5C])[sp].d(T)[sp].d(T)[sp].d(T)[sp].d([m5C])[sp].d([m5C])[sp].d(A)[sp].d(A)[sp].d(T)[sp].[moe](A)p.[moe](G)p.[moe](A)[sp].[moe](G)}$$$$ (last 3' nucleoside missing) | 1.5
RNA1{[moe](G)[sp].[moe](G)p.[moe](G)p.[moe](T)p.[moe]([m5C])p.d(G)[sp].d(G)[sp].d(A)[sp].d(T)[sp].d(A)[sp].d(T)[sp].d(A)[sp].d(G)[sp].d([m5C])[sp].d(T)[sp].[moe](T)p.[moe](T)p.[moe](T)[sp].[moe](A)}$$$$ (last 3' nucleoside missing) | 5
RNA1{[moe](G)[sp].[moe](G)p.[moe](G)p.[moe]([m5C])p.[moe](A)p.d(A)[sp].d(A)[sp].d(A)[sp].d(A)[sp].d(T)[sp].d(A)[sp].d(G)[sp].d([m5C])[sp].d(A)[sp].d(A)[sp].[moe]([m5C])p.[moe](A)p.[moe](T)[sp].[moe](A)}$$$$ (last 3' nucleoside missing) | 5.8
RNA1{[moe](G)[sp].[moe](G)p.[moe](G)p.[moe]([m5C])p.[moe](A)p.d(G)[sp].d([m5C])[sp].d(A)[sp].d(A)[sp].d([m5C])[sp].d(A)[sp].d(G)[sp].d([m5C])[sp].d(T)[sp].d([m5C])[sp].[moe](T)p.[moe](T)p.[moe](G)[sp].[moe](A)}$$$$ (last 3' nucleoside missing) | 7
RNA1{[moe](G)[sp].[moe](G)p.[moe](G)p.[moe]([m5C])p.[moe](A)p.d([m5C])[sp].d(A)[sp].d(G)[sp].d(T)[sp].d(A)[sp].d(G)[sp].d(T)[sp].d(G)[sp].d(G)[sp].d(T)[sp].[moe](A)p.[moe](T)p.[moe]([m5C])[sp].[moe](A)}$$$$ (last 3' nucleoside missing) | 5.2
RNA1{[moe](G)[sp].[moe](G)p.[moe](T)p.[moe](A)p.[moe](A)p.d(G)[sp].d(G)[sp].d([m5C])[sp].d(A)[sp].d(G)[sp].d([m5C])[sp].d(T)[sp].d([m5C])[sp].d([m5C])[sp].d(T)[sp].[moe](G)p.[moe](A)p.[moe]([m5C])[sp].[moe](A)}$$$$ (last 3' nucleoside missing) | 1.3
RNA1{[moe](G)[sp].[moe](G)p.[moe](T)p.[moe](A)p.[moe](G)p.d(T)[sp].d([m5C])[sp].d(T)[sp].d(A)[sp].d(T)[sp].d(A)[sp].d(T)[sp].d(T)[sp].d(T)[sp].d(G)[sp].[moe](G)p.[moe](T)p.[moe](A)[sp].[moe](A)}$$$$ (last 3' nucleoside missing) | 6.2
RNA1{[moe](G)[sp].[moe](G)p.[moe](T)p.[moe](A)p.[moe](G)p.d([m5C])[sp].d([m5C])[sp].d([m5C])[sp].d([m5C])[sp].d(A)[sp].d(A)[sp].d(T)[sp].d(A)[sp].d([m5C])[sp].d(A)[sp].[moe](G)p.[moe](A)p.[moe](T)[sp].[moe](T)}$$$$ (last 3' nucleoside missing) | 1
RNA1{[moe](G)[sp].[moe](G)p.[moe](T)p.[moe](A)p.[moe](T)p.d(T)[sp].d(G)[sp].d(A)[sp].d([m5C])[sp].d(A)[sp].d([m5C])[sp].d([m5C])[sp].d(T)[sp].d([m5C])[sp].d([m5C])[sp].[moe](A)p.[moe](A)p.[moe]([m5C])[sp].[moe](T)}$$$$ (last 3' nucleoside missing) | 5
RNA1{[moe](G)[sp].[moe](G)p.[moe](T)p.[moe](T)p.[moe](A)p.d(A)[sp].d(G)[sp].d(T)[sp].d([m5C])[sp].d(T)[sp].d(G)[sp].d([m5C])[sp].d(T)[sp].d([m5C])[sp].d(T)[sp].[moe](T)p.[moe](T)p.[moe]([m5C])[sp].[moe](A)}$$$$ (last 3' nucleoside missing) | 4
RNA1{[moe](G)[sp].[moe](G)p.[moe](T)p.[moe](T)p.[moe](A)p.d(G)[sp].d(G)[sp].d(G)[sp].d([m5C])[sp].d(T)[sp].d(A)[sp].d(T)[sp].d(G)[sp].d(T)[sp].d(T)[sp].[moe](A)p.[moe](T)p.[moe](G)[sp].[moe](T)}$$$$ (last 3' nucleoside missing) | 6
RNA1{[moe](G)[sp].[moe](G)p.[moe](T)p.[moe](T)p.[moe](T)p.d(A)[sp].d(G)[sp].d(G)[sp].d(T)[sp].d([m5C])[sp].d(A)[sp].d(A)[sp].d([m5C])[sp].d([m5C])[sp].d(A)[sp].[moe](A)p.[moe](T)p.[moe](T)[sp].[moe](T)}$$$$ (last 3' nucleoside missing) | 6
RNA1{[moe](G)[sp].[moe](G)p.[moe](T)p.[moe](T)p.[moe](T)p.d(A)[sp].d(G)[sp].d(T)[sp].d(G)[sp].d(T)[sp].d([m5C])[sp].d(A)[sp].d(T)[sp].d(A)[sp].d(T)[sp].[moe](G)p.[moe](T)p.[moe](A)[sp].[moe](G)}$$$$ (last 3' nucleoside missing) | 5.5
RNA1{[moe](G)[sp].[moe](G)p.[moe](T)p.[moe]([m5C])[sp].d(A)[sp].d(T)[sp].d([m5C])[sp].d(T)[sp].d([m5C])[sp].d(G)[sp].d(G)[sp].d(G)[sp].[moe](T)p.[moe](A)p.[moe](T)p.[moe](A)[sp].[moe](T)}$$$$ (last 3' nucleoside missing) | 6.3
